Results from US4499104A, “Imidazole compound, the process for its preparation, and therapeutically active compositions containing same” (priority 1976, dated 1985).

Key:
Dog = experiment: Acute toxicity, dog; assay type: in vivo
[1] = Antipyretic activity, hyperthermia by beer yeast in rat; assay type: in vivo, Wistar stock; settings: oral, 1/10 of DL50; chlorophenazole 50 mg/kg, phenylbutazone 35 mg/kg
Method: It was then measured in the rat using 10 animals of Wistar stock per group weighing 170-200 g, made hyperthermal by subcutaneous injection of a 10% beer yeast suspension in distilled water.
The compounds awere administered orally 60 minutes after the induction of fever in doses equal to 1/10 of the DL50. Readings were taken at 30 minute intervals for 5 hours.

[2] = Edema by carrageen in normal and adrenoprival (suprarenectomised) rats; assay type: in vivo, rat; design: Edema by carrageen: unit not given beside the values
Method: A 1% physiological solution of carrageen was used. Rats of the Wistar-Roux-Ocefa stock having a weight of 150±30 g were used. The drugs were suspended in 1% carboxymethylcellulose or dissolved in distilled water and administered orally one hour before the inflammatory agent in a volume of 0.5 ml/100 g. The carrageen was adminstered subcutaneously in the subplanetary region of one of the rear paws. The volume of the paw was measured platysmagraphically initially and then after 1.5 hour, 3 hours and 5 hours after administering the carrageen. One inflammation unit was defined as the displacement of 0.01 ml of Hg.
The edema was evaluated as the difference in volume of the rear paw before and after the carrageen. The DE 50 was calculated by the probits method and graphically. The comparison drugs used were phenylbutazone and niflumic acid.
To evaluate if the activity of the chlorophenazole on edema by carrageen was influenced by stimulation of the suprarenes, experiments were carried out with suprarenectomised rats. Normal rats were also compared with falsely operated rats to evaluate the influence of the operational trauma.

rats [3] = experiment: Chronic toxicity, second experiment (5 months); assay type: in vivo, Wistar-Ocefa rats; settings: for cholesterol: male rats
Method: (§1) Wistar-Ocefa rats of both sexes weighing 70-90 g were used, divided into groups of 30 animals (15 males and 15 females) to a total of […].
(§2) Chlorophenazole and phenylbutazone (reference drug) were administered orally for a period of 60 days in doses of 30-60 mg/kg of chlorophenazole and 8-160 mg/kg of phenylbutazone (first experiment) and for a period of 5 months in doses of 6-12 mg/kg of chlorophenazole and 16 mg/kg of phenylbutazone (second experiment).
(§3) The following parameters were determined periodically: behavior, general state, food consumption, body weight, red blood cell number, white blood cell number, leucocite formula, hemoglobin, hematocrit, globular value, total proteins, glycemia, azotemia, cholesterol, total lipids, triglycerides, creatinine, GOT, GPT, urine analysis. At the end of the experiment the animals were sacrificed, their general state was observed, the following organs were weighed: liver, spleen, kidneys, supranenes, ovary and testicles, lungs, heart, stomach.

[4] = Hot plate method (thermal stimulus), analgesic activity; assay type: in vivo, Male mice
Method: This is based on the time (seconds) taked by the mouse for removing his paws from a plate heated to 56° C. Male mice were used of weight 25 to 27 g, preselected so that all reacted in a time less than 20 seconds.
The reaction time was measured 15, 30 and 60 minutes after administering the drugs. The chlorophenazole was tested orally and subcutaneously, both alone and associated with morphine hydrochloride. […] (FIGS. 2 and 3).

rats [5] = experiment: Chronic toxicity, first experiment (60 days); assay type: in vivo, Wistar-Ocefa rats; settings: 60 days
Method: as §1, §2, §3

[6] = Antipyretic activity, hyperthermia by lysate of Neisseria perflava in rabbit; assay type: in vivo, male albino rabbits; settings: oral
Method: This was first studied in the rabbit, using 6 male albino rabbits of 3-3.5 kg per group, made hyperthermal by i.v. injection of 0.5 ml/kg of a lysate of Neisseria perflava. The rectal temperature was determined by thermocouples every 60 minutes for 3 hours. The difference in temperature was calculated between maximum elevation and base temperature at each time. The drug was administered orally.

[7] = Pulminary edema by carrageen (Sancilio method, pleural exudate); assay type: in vivo, Wistar-Roux-Ocefa rats
Method: Using the Sancilio method (Sancilio F. L., J. Pharmacol. Exptl. Therap., 168, 199 (1969); Sancilio L. F. Rodrigues R., Proc. Soc. Exptl. Biol. Med., 123, 707 (1969); Sancilio L. F. Lawrence R., Proc. Soc. Exptl. Biol. Med., 127, 597 (1968), pulminary irritation was induced in Wistar-Roux-Ocefa rats and the capacity of chlorophenazole and other drugs to prevent production of pleural exudate was measured. 5 ml of a 0.025% carrageen solution and 0.075% Evans blue were injected into the pleurea.
The action of chlorophenazole, mepyrazole and phenylbutazone were evaluated from the quantity of exudate present in the pleural cavity after 1 and 6 hours.

[8] = Action on sleep by barbiturates; assay type: in vivo, Wistar-Ocefa rats
Method: […] Loss of the redressment reflex was taken to indicate commencement of sleep. The chlorophenazone was administered orally with a dose of 1/10 of the DL50. The induction time and the duration of sleep were measured.

in vivo = settings: rat
[9] = Anticonvulsive activity against cardiazole; assay type: in vivo, Rockland-Ocefa mice; settings: for Protection from convulsivant cardiazole, first value: first of two values; for Protection from convulsivant cardiazole, second value: second of two values
Method: Rockland-Ocefa mice of both sexes weighing 22±3 g and fasting for 16 hours were used.

[10] = chlorophenazole 51.5 mg/kg oral + pentobarbital sodium 20 mg/kg

## Cc1[nH]cnc1-c1ccc(Cl)cc1 [Chlorophenazole, 4-(p-chlorophenyl)-5-methylimidazole]
Dog
  DL100: 50 mg/kg
[1]
  antipyretic activity relative to phenylbutazone: superiority over phenylbutazone
[2]; adrenoprival rats
  dependence of activity on the suprarenal cortex: independent of the suprarenal cortex
[2]; adrenoprival rats, 10 mg/kg, 1.5 hours
  Edema by carrageen: 22
[2]; adrenoprival rats, 10 mg/kg, 3 hours
  Edema by carrageen: 27
[2]; adrenoprival rats, 10 mg/kg, 5 hours
  Edema by carrageen: 55
[2]; adrenoprival rats, 20 mg/kg, 1.5 hours
  Edema by carrageen: 16
[2]; adrenoprival rats, 20 mg/kg, 3 hours
  Edema by carrageen: 18
[2]; adrenoprival rats, 20 mg/kg, 5 hours
  Edema by carrageen: 45
[2]; adrenoprival rats, 40 mg/kg, 1.5 hours
  Edema by carrageen: 13
[2]; adrenoprival rats, 40 mg/kg, 3 hours
  Edema by carrageen: 20
[2]; adrenoprival rats, 40 mg/kg, 5 hours
  Edema by carrageen: 39
[2]; normal rats, 10 mg/kg, 1.5 hours
  Edema by carrageen: 15
[2]; normal rats, 10 mg/kg, 3 hours
  Edema by carrageen: 35
[2]; normal rats, 10 mg/kg, 5 hours
  Edema by carrageen: 58
[2]; normal rats, 20 mg/kg, 1.5 hours
  Edema by carrageen: 15
[2]; normal rats, 20 mg/kg, 3 hours
  Edema by carrageen: 29
[2]; normal rats, 20 mg/kg, 5 hours
  Edema by carrageen: 44
[2]; normal rats, 40 mg/kg, 1.5 hours
  Edema by carrageen: 15
[2]; normal rats, 40 mg/kg, 3 hours
  Edema by carrageen: 23
[2]; normal rats, 40 mg/kg, 5 hours
  Edema by carrageen: 42
Rats [3]; 6 mg/kg
  cholesterol: significant alteration
Rats [3]; 12 mg/kg, female rats
  glycemia: small increase in glycemia
Rats [3]; greater dose
  cholesterol: not confirmed with the greater dose
[4]; 50 mg/kg oral
  reaction time relative to control mice: significantly prolongs the reaction time relative to the control mice
[4]; associated with morphine hydrochloride
  effect on morphine analgesia: evident increase exerted by the drug on morphine analgesia
Rats [5]
  stomach appearance: distended and rose colored
Rats [5]; larger doses
  cholesterol: the same for cholesterol at the larger doses
[6]
  protection from temperature increase: clearly protected the animals from temperature increase
[7]; 30 mg/Kg, pleural cavity
  ml of exudate: 3.11 mL
[7]; exudate after 1 and 6 hours
  activity on pleural exudate: significantly active
[8]; 1/10 of the DL50 oral
  action on sleep by barbiturates: improves sleep by barbiturates
[8]; [10]
  Induction time: 2.9 min
  Sleeping time: 65.2 min
In vivo; ip
  LD50: 135 mg/kg
In vivo; po
  LD50: 515 mg/kg
[9]; 50 mg/kg, 15'
  Protection from convulsivant cardiazole, first value: 6.23
  Protection from convulsivant cardiazole, second value: 6.70
[9]; 50 mg/kg, 30'
  Protection from convulsivant cardiazole, first value: 10.80
  Protection from convulsivant cardiazole, second value: 8.30
[9]; 50 mg/kg, 90'
  Protection from convulsivant cardiazole, first value: 8.10
  Protection from convulsivant cardiazole, second value: 7.0
[9]; 100 mg/kg, 15'
  Protection from convulsivant cardiazole, first value: 9.90
  Protection from convulsivant cardiazole, second value: 8.90
[9]; 100 mg/kg, 30'
  Protection from convulsivant cardiazole, first value: 13.00
  Protection from convulsivant cardiazole, second value: 26.40
[9]; 100 mg/kg, 90'
  Protection from convulsivant cardiazole, first value: 28.70
  Protection from convulsivant cardiazole, second value: 20.00
[9]; 200 mg/kg, 15'
  Protection from convulsivant cardiazole, second value: 9.2
[9]; 200 mg/kg, 30'
  Protection from convulsivant cardiazole, second value: 27.30
[9]; 200 mg/kg, 90'
  Protection from convulsivant cardiazole, second value: 30.10
[9]; cardiazole and strychnine
  framework of convulsive death: does not modify the framework of convulsive death
  premortal period: significant elongation of the premortal period
